# According to patent publication US10131652B2, “Pyrimidinyloxy benzene derivatives as herbicides” (E. I. DU PONT DE NEMOURS AND COMPANY, priority 2014, dated 2018):
# Assays:
# Format in all cases: in vivo
# [1] = system: Italian ryegrass (Lolium multiflorum); assay: Test B pre-/postemergence plant response
# Procedure, shortened: (§1)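 Steps: plant seeds in loam soil–sand mix; spray soil preemergence, and in parallel spray 2–10 cm one- to two-leaf plants postemergence; hold ~10 days in greenhouse; visually rate injury against untreated controls (0 = no effect, 100 = complete control).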
# kochia (Kochia scoparia) = assay: Test B pre-/postemergence plant response
# Procedure, shortened: as §1
# [2] = system: ragweed (common ragweed, Ambrosia elatior); assay: Test B pre-/postemergence plant response
# Procedure, shortened: as §1
# [3] = system: barnyardgrass (Echinochloa crus-galli); assay: Test C flooded paddy test plant response; conditions: Flood, 250 g ai/ha; scale of 0 to 100 where 0 is no effect and 100 is complete control; 13 to 15 days
# Procedure, shortened: (§2)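 Flooded-pot format, 3 cm water over soil maintained for the test duration; test compounds dispensed into the water at the 2-leaf stage. Greenhouse holding 13 to 15 days. Plants evaluated visually relative to untreated controls, 0 meaning no effect and 100 complete control.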
# [4] = system: ducksalad (Heteranthera limosa); assay: Test C flooded paddy test plant response; conditions: Flood, 250 g ai/ha; scale of 0 to 100 where 0 is no effect and 100 is complete control; 13 to 15 days
# Procedure, shortened: as §2
# rice (Oryza sativa) = assay: Test C flooded paddy test plant response; conditions: Flood, 250 g ai/ha; scale of 0 to 100 where 0 is no effect and 100 is complete control; 13 to 15 days
# Procedure, shortened: as §2
# [5] = system: small-flower umbrella sedge (Cyperus difformis); assay: Test C flooded paddy test plant response; conditions: Flood, 250 g ai/ha; scale of 0 to 100 where 0 is no effect and 100 is complete control; 13 to 15 days
# Procedure, shortened: as §2
# [6] = system: barnyardgrass (Echinochloa crus-galli); assay: Test D pre-/postemergence plant response
# Procedure, shortened: (§3)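 Visual rating, 0–100 scale (0 = no effect, 100 = complete control), versus untreated controls 13 to 15 days after treatment in greenhouse. Preemergence: seeds in loam/sand soil. Postemergence: 2 to 18 cm plants, 1- to 4-leaf stage, peat-based medium. Compounds formulated in non-phytotoxic solvent plus surfactant.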
# [7] = system: blackgrass (Alopecurus myosuroides); assay: Test D pre-/postemergence plant response
# Procedure, shortened: as §3
# [8] = system: giant foxtail (Setaria faberii); assay: Test D pre-/postemergence plant response
# Procedure, shortened: as §3
# [9] = system: johnsongrass (Sorghum halepense); assay: Test D pre-/postemergence plant response
# Procedure, shortened: as §3
# [10] = system: oilseed rape (Brassica napus); assay: Test D pre-/postemergence plant response
# Procedure, shortened: as §3
# [11] = system: pigweed (Amaranthus retroflexus); assay: Test D pre-/postemergence plant response
# Procedure, shortened: as §3
# [12] = system: velvetleaf (Abutilon theophrasti); assay: Test D pre-/postemergence plant response
# Procedure, shortened: as §3
# [13] = Postemergence, 1000 g ai/ha, 0 to 100 scale (0 no effect, 100 complete control)
# [14] = Preemergence, 1000 g ai/ha, 0 to 100 scale (0 no effect, 100 complete control)
# [15] = Postemergence, 16 g ai/ha, scale 0 to 100 (0 no effect, 100 complete control)
# [16] = Postemergence, 31 g ai/ha, scale 0 to 100 (0 no effect, 100 complete control)
# [17] = Postemergence, 62 g ai/ha, scale 0 to 100, 0 no effect, 100 complete control
# [18] = Postemergence, 125 g ai/ha, scale 0 to 100, 0 no effect, 100 complete control
# [19] = Preemergence, 16 g ai/ha, scale 0 to 100 (0 no effect, 100 complete control)
# [20] = Preemergence, 31 g ai/ha, scale 0 to 100 (0 no effect, 100 complete control)
# [21] = Preemergence, 62 g ai/ha, scale 0 to 100 (0 no effect, 100 complete control)
# [22] = 125 g ai/ha, postemergence, 0 to 100 scale, 0 no effect, 100 complete control
# [23] = Postemergence, 500 g ai/ha, 0 to 100 scale (0 no effect, 100 complete control)
# [24] = Preemergence, 125 g ai/ha, 0 to 100 scale where 0 is no effect and 100 is complete control
# [25] = Preemergence, 500 g ai/ha, 0 to 100 scale where 0 is no effect and 100 is complete control
smiles,measurement,setting,value
FCc1cc(-c2c(F)cccc2Oc2ncc(Cl)cn2)no1 [Compound 57],"Plant response rating, Ryegrass, Italian",[1]; [13],80
same,"Plant response rating, Ryegrass, Italian",[1]; [14],80
same,"Plant response rating, Kochia",kochia (Kochia scoparia); [13],90
same,"Plant response rating, Kochia",kochia (Kochia scoparia); [14],100
same,"Plant response rating, Ragweed",[2]; [13],100
same,"Plant response rating, Ragweed",[2]; [14],90
same,Barnyardgrass plant response rating,[3],0
same,Ducksalad plant response rating,[4],90
same,Rice plant response rating,rice (Oryza sativa),0
same,"Sedge, Umbrella plant response rating",[5],75
same,Barnyardgrass plant response rating,[6]; [15],0
same,Barnyardgrass plant response rating,[6]; [16],5
same,"Plant response rating, Barnyardgrass",[6]; [17],5
same,"Plant response rating, Barnyardgrass",[6]; [18],10
same,"Plant response rating (scale 0 to 100), Barnyardgrass","[6]; Preemergence, 62 g ai/ha",75
same,"Plant response rating (scale 0 to 100), Barnyardgrass","[6]; Preemergence, 125 g ai/ha",85
same,"Plant response rating, Barnyardgrass",[6]; [19],5
same,"Plant response rating, Barnyardgrass",[6]; [20],20
same,Blackgrass plant response rating,[7]; [15],0
same,Blackgrass plant response rating,[7]; [16],0
same,"Plant response rating, Blackgrass",[7]; [17],0
same,"Plant response rating, Blackgrass",[7]; [18],15
same,"Plant response rating (scale 0 to 100), Blackgrass","[7]; Preemergence, 125 g ai/ha",60
same,"Plant response rating, Blackgrass",[7]; [19],5
same,"Plant response rating, Blackgrass",[7]; [20],5
same,"Plant response rating, Blackgrass",[7]; [21],50
same,"Foxtail, Giant plant response rating",[8]; [15],0
same,"Foxtail, Giant plant response rating",[8]; [16],10
same,"Plant response rating, Foxtail, Giant",[8]; [17],20
same,"Plant response rating, Foxtail, Giant",[8]; [18],20
same,"Plant response rating (scale 0 to 100), Foxtail, Giant","[8]; Preemergence, 125 g ai/ha",100
same,"Plant response rating, Foxtail, Giant",[8]; [19],50
same,"Plant response rating, Foxtail, Giant",[8]; [20],90
same,"Plant response rating, Foxtail, Giant",[8]; [21],100
same,Johnsongrass plant response rating,[9]; [15],0
same,Johnsongrass plant response rating,[9]; [16],0
same,"Plant response rating, Johnsongrass",[9]; [17],5
same,"Plant response rating, Johnsongrass",[9]; [18],5
same,"Plant response rating (scale 0 to 100), Johnsongrass","[9]; Preemergence, 125 g ai/ha",80
same,"Plant response rating, Johnsongrass",[9]; [19],0
same,"Plant response rating, Johnsongrass",[9]; [20],10
same,"Plant response rating, Johnsongrass",[9]; [21],40
same,Oilseed Rape plant response rating,[10]; [15],30
same,Oilseed Rape plant response rating,[10]; [16],55
same,"Plant response rating, Oilseed Rape",[10]; [17],75
same,"Plant response rating, Oilseed Rape",[10]; [18],90
same,"Plant response rating (scale 0 to 100), Oilseed Rape","[10]; Preemergence, 125 g ai/ha",100
same,"Plant response rating, Oilseed Rape",[10]; [19],100
same,"Plant response rating, Oilseed Rape",[10]; [20],100
same,"Plant response rating, Oilseed Rape",[10]; [21],100
same,Pigweed plant response rating,[11]; [15],30
same,Pigweed plant response rating,[11]; [16],55
same,"Plant response rating, Pigweed",[11]; [17],55
same,"Plant response rating, Pigweed",[11]; [18],75
same,"Plant response rating (scale 0 to 100), Pigweed","[11]; Preemergence, 125 g ai/ha",100
same,"Plant response rating, Pigweed",[11]; [19],75
same,"Plant response rating, Pigweed",[11]; [20],85
same,"Plant response rating, Pigweed",[11]; [21],100
same,Velvetleaf plant response rating,[12]; [15],10
same,Velvetleaf plant response rating,[12]; [16],50
same,"Plant response rating, Velvetleaf",[12]; [17],70
same,"Plant response rating, Velvetleaf",[12]; [18],80
same,"Plant response rating (scale 0 to 100), Velvetleaf","[12]; Preemergence, 125 g ai/ha",100
same,"Plant response rating, Velvetleaf",[12]; [19],100
same,"Plant response rating, Velvetleaf",[12]; [20],100
same,"Plant response rating, Velvetleaf",[12]; [21],100
Cc1cc(-c2ccccc2Oc2ncc(Cl)cn2)on1 [Compound 58],"Plant response rating, Ryegrass, Italian",[1]; [22],20
same,"Plant response rating, Ryegrass, Italian",[1]; [23],80
same,"Plant response rating, Ryegrass, Italian",[1]; [24],0
same,"Plant response rating, Ryegrass, Italian",[1]; [25],20
same,"Plant response rating, Kochia",kochia (Kochia scoparia); [22],100
same,"Plant response rating, Kochia",kochia (Kochia scoparia); [23],100
same,"Plant response rating, Kochia",kochia (Kochia scoparia); [24],80
same,"Plant response rating, Kochia",kochia (Kochia scoparia); [25],100
same,"Plant response rating, Ragweed",[2]; [22],100
same,"Plant response rating, Ragweed",[2]; [23],100
same,"Plant response rating, Ragweed",[2]; [24],70
same,"Plant response rating, Ragweed",[2]; [25],80
same,Barnyardgrass plant response rating,[3],0
same,Ducksalad plant response rating,[4],80
same,Rice plant response rating,rice (Oryza sativa),0
same,"Sedge, Umbrella plant response rating",[5],40
same,Barnyardgrass plant response rating,[6]; [15],0
same,Barnyardgrass plant response rating,[6]; [16],0
same,"Plant response rating, Barnyardgrass",[6]; [17],0
same,"Plant response rating, Barnyardgrass",[6]; [18],5
same,"Plant response rating (scale 0 to 100), Barnyardgrass","[6]; Preemergence, 62 g ai/ha",65
same,"Plant response rating (scale 0 to 100), Barnyardgrass","[6]; Preemergence, 125 g ai/ha",80
same,"Plant response rating, Barnyardgrass",[6]; [19],5
same,"Plant response rating, Barnyardgrass",[6]; [20],5
same,Blackgrass plant response rating,[7]; [15],0
same,Blackgrass plant response rating,[7]; [16],0
same,"Plant response rating, Blackgrass",[7]; [17],0
same,"Plant response rating, Blackgrass",[7]; [18],5
same,"Plant response rating (scale 0 to 100), Blackgrass","[7]; Preemergence, 125 g ai/ha",95
same,"Plant response rating, Blackgrass",[7]; [19],0
same,"Plant response rating, Blackgrass",[7]; [20],5
same,"Plant response rating, Blackgrass",[7]; [21],80
same,"Foxtail, Giant plant response rating",[8]; [15],0
same,"Foxtail, Giant plant response rating",[8]; [16],0
same,"Plant response rating, Foxtail, Giant",[8]; [17],15
same,"Plant response rating, Foxtail, Giant",[8]; [18],30
same,"Plant response rating (scale 0 to 100), Foxtail, Giant","[8]; Preemergence, 125 g ai/ha",98
same,"Plant response rating, Foxtail, Giant",[8]; [19],0
same,"Plant response rating, Foxtail, Giant",[8]; [20],15
same,"Plant response rating, Foxtail, Giant",[8]; [21],85
same,Johnsongrass plant response rating,[9]; [15],0
same,Johnsongrass plant response rating,[9]; [16],0
same,"Plant response rating, Johnsongrass",[9]; [17],0
same,"Plant response rating, Johnsongrass",[9]; [18],5
same,"Plant response rating (scale 0 to 100), Johnsongrass","[9]; Preemergence, 125 g ai/ha",50
same,"Plant response rating, Johnsongrass",[9]; [19],10
same,"Plant response rating, Johnsongrass",[9]; [20],10
same,"Plant response rating, Johnsongrass",[9]; [21],20
same,Oilseed Rape plant response rating,[10]; [15],5
same,Oilseed Rape plant response rating,[10]; [16],10
same,"Plant response rating, Oilseed Rape",[10]; [17],60
same,"Plant response rating, Oilseed Rape",[10]; [18],75
same,"Plant response rating (scale 0 to 100), Oilseed Rape","[10]; Preemergence, 125 g ai/ha",100
same,"Plant response rating, Oilseed Rape",[10]; [19],60
same,"Plant response rating, Oilseed Rape",[10]; [20],98
same,"Plant response rating, Oilseed Rape",[10]; [21],100
same,Pigweed plant response rating,[11]; [15],20
same,Pigweed plant response rating,[11]; [16],25
same,"Plant response rating, Pigweed",[11]; [17],40
same,"Plant response rating, Pigweed",[11]; [18],75
same,"Plant response rating (scale 0 to 100), Pigweed","[11]; Preemergence, 125 g ai/ha",100
same,"Plant response rating, Pigweed",[11]; [19],50
same,"Plant response rating, Pigweed",[11]; [20],100
same,"Plant response rating, Pigweed",[11]; [21],100
same,Velvetleaf plant response rating,[12]; [15],60
same,Velvetleaf plant response rating,[12]; [16],35
same,"Plant response rating, Velvetleaf",[12]; [17],60
same,"Plant response rating, Velvetleaf",[12]; [18],85
same,"Plant response rating (scale 0 to 100), Velvetleaf","[12]; Preemergence, 125 g ai/ha",100
same,"Plant response rating, Velvetleaf",[12]; [19],85
same,"Plant response rating, Velvetleaf",[12]; [20],100
same,"Plant response rating, Velvetleaf",[12]; [21],100
